Results taken from publication PMC6670186, “Novel prodrugs of decitabine with greater metabolic stability and less toxicity” (Clinical Epigenetics, 2019).
pIC50: −log10 of the molar value. “Also recorded” adds a separate entry of the source. Where two headings read alike, the source gives them in different places. Marks after values point to notes of the source that are not given here.

How the values were obtained:
[1] = Partition coefficient (log P), shake-flask method, n-octanol/PBS; format: physicochemical
Protocol: The method employed HPLC with the following conditions: ZORBAX Bonus C18 column (4.6 × 150 mm, 3 μm); eluent: A = 10 mM HCO2NH4, B = acetonitrile, A:B = 50:50 (an isocratic mode for 5 min), and A:B = 99:1–20:80 (a gradient mode for 15 min); flow rate = 1.0 mL/min; oven temperature = 40 °C; detection = 240 nm.

[2] = Stability in phosphate-buffered saline; format: physicochemical; conditions: for Stability t1/2 in PBS: PBS 37 °C, 20** + x h, 20 h = t1/2 in PBS of DAC, x = OR compound; for t1/2 in PBS: PBS solution at 37°C
Protocol: Five microliters of DAC derivatives (1.0 mg/100 μL of DMSO) was added to 200 μL of a stirred PBS solution at 37 °C. The mixture was stirred continuously for 1 day. The remaining of the starting derivatives was assayed using the HPLC analytical conditions as described above.

[3] = Pharmacokinetics in mice, intraperitoneal; format: in vivo; conditions: for AUC 0 → lim, Total: OR compound + metabolite DAC; for AUC 0 → lim, OR compound: dose equimolar to 0.20 mg/kg DAC
Protocol: Six-week-old female ICR mice were intraperitoneally injected with 0.20 mg/kg of DAC, 0.29 mg/kg of OR-2003, 0.32 mg/kg of OR-2009, 0.30 mg/kg of OR-2100, and 0.31 mg/kg of OR-2102. The doses were decided so that equivalent amounts of molar concentration would be administered. The blood plasma was collected before and at 5, 15, 30, 45, 60, 90, and 120 min after the treatment. All experimental procedures were approved by the Committee of National Cancer Center.

HML58-3 cells [4] = experiment: Luciferase reporter assay for DNA demethylation; format: cell-based, Human; conditions: 0.1 and 1.0 μM for 1 h, analyzed on day 5
Protocol: Cells were seeded at a density of 5 × 10^3 cells/well in a 96-well microplate on day 0 in triplicate, and 5 × 10^4 cells/well in a six-well plate on day 0. On day 1, the medium was replaced with a medium containing a specific concentration of a drug, which was freshly dissolved in DMSO and filtered through a 0.2-μ filter. On day 5, the supernatant from each well of the 96-well microplate was collected to measure luminescence. Luminescence was measured using the Ready-To-Glow^TM Secreted Luciferase Reporter Assay (Clontech; Mountain View, CA) and a multimode plate reader ARVO^TMMX (PerkinElmer Japan Co Ltd.; Kanagawa, Japan).

[5] = tested on: exogenous UCHL1 promoter and OSR2 promoter CpG island; experiment: Quantitative methylation-specific PCR of marker genes; format: cell-based, Human; conditions: qMSP; for DNA demethylation after pulse exposure: HML58-3 cells, 1.0 μM for 1 h; for DNA demethylation of exogenous UCHL1 promoter and OSR2 promoter CpG island: 0.0 to 10.0 μM
Protocol: One microgram of EcoRV-digested genomic DNA was treated with sodium bisulfite as described previously. Bisulfite-treated DNA was resuspended in 40 μL of TE-buffer (10 mM Tris, pH 8.0; 1 mM EDTA, pH 8.0), and 1 μL was used for quantitative methylation-specific PCR (qMSP) using primers specific to methylated and unmethylated target loci, including MetLuc-UCHL1 promoter, OSR2 promoter, and UCHL1 promoter (Additional file 1: Table S1). As a fully unmethylated DNA control, genomic DNA from peripheral blood cells of a healthy person was amplified twice using a GenomiPhi DNA amplification kit (GE Healthcare Life Sciences; Little Chalfont, UK). As a fully methylated DNA control, the fully unmethylated DNA was methylated by SssI methylase (New England Biolabs; Beverly, MA).

HML58-3 cells [6] = experiment: Genome-wide DNA methylation analysis (Infinium MethylationEPIC); format: cell-based, Human; conditions: 1 μM
Protocol: Genome-wide DNA methylation analysis was performed using an Infinium Human MethylationEPIC BeadChip (Infinium EPIC; Illumina; Sam Diego, CA) as described previously. The BeadArray assessed the degree of methylation of 862,927 CpG probes as beta-values that ranged from 0 (unmethylated) to 1 (fully methylated). To reduce the data size and obtain data that were easy to handle, the CpG probes were grouped into 548,546 genomic blocks (GBs), which consisted of probes within 500 bp.

RKO cells = experiment: Cell growth inhibition, RKO; format: cell-based, Human
Protocol: (§1) Cells were seeded at a density of 1 × 10^3 to 5 × 10^3 cells/well in a 96-well microplate or 1 × 10^4 to 5 × 10^4 cells/well in a six-well microplate on day 0 in triplicate, followed by treatment with drugs on day 1. The cell growth of HCT116 was estimated using IncuCyte (Essen BioScience, K.K.; Tokyo, Japan) for 94 h. The cell viability of SW480, HT29, and TMK1 was evaluated using a WST-8 [2-(2-methoxy-4-nitrophenyl)-3-(4-nitrophenyl)-5-(2, 4-disulfophenyl)-2H tetrazolium, monosodium salt] assay (Nacalai Tesque Inc., Kyoto, Japan). The numbers of cells of RKO, breast cancer cell lines, sarcoma cell lines, and neuroblastoma cell lines were counted using a microscope. The half-maximum inhibitory concentration (IC50) was obtained using the non-linear regression analysis of log (inhibitor) versus the normalized response with a variable slope using the GraphPad Prism software (GraphPad Software; La Jolla, CA).

TMK1 cells = experiment: Cell viability (WST-8), TMK1; format: cell-based
Protocol: as §1

HCT116 cells = experiment: Cell growth inhibition, HCT116; format: cell-based, Human
Protocol: as §1

HML58-3 = experiment: Expression microarray; format: cell-based, Human; conditions: 1 μM, 58,341 probes
Protocol: Cy3-labeled cRNA was synthesized from 100 ng of total RNA using a Low Input Quick Amp Labeling Kit, One-Color (Agilent Technologies, Santa Clara, CA), and 600 ng of labeled cRNA was fragmented and hybridized to SurePrint G3 Human Gene Expression 8 x 60K v3 Microarray (Agilent Technologies). The hybridized microarray was scanned with an Agilent G2600D microarray scanner (Agilent Technologies). The scanned data were processed using Feature Extraction software (Agilent Technologies) and analyzed using GeneSpring software (Agilent Technologies). The 75th percentile of the signal intensity of all probes was normalized to be 0, and the genes with signal intensities of − 1 or more were regarded as showing positive expression.

HCT116 xenografts = experiment: Xenograft tumor formation assay in nude mice; format: in vivo; conditions: for DNA demethylation of two promoters in xenograft tumors: group 2 mice; for tumor growth (tumor volume): intraperitoneal, twice per week
Protocol: (§2) HCT116 cells (5.0 × 10^6 cells per mouse) were subcutaneously injected into the inguinal region of 6-week-old female nude mice (n = 81) (BALB/c-nu/nu; CLEA Japan, Tokyo, Japan). Once tumors reached an average volume of 80 mm^3, mice bearing xenograft tumors were randomly divided into nine groups and treated intraperitoneally with vehicle (5% DMSO in 10% 2-hydroxypropyl-β-cyclodextrin solution), DAC, OR-2003, or OR-2100. The length and width of tumors were measured with standard calipers twice per week, and tumor volumes were calculated using the formula tumor volume = (length × width^2) × 0.5. Body weight was measured twice per week. […] The remaining mice were categorized as group 1 and continuously treated with drugs. At 29 days after the treatment, tumors, major organs, bone marrow, and blood serum were collected from six mice and blood count and biochemical tests were performed. The mice were maintained under standard conditions according to the institutional guidelines for animal care.

[7] = Adverse effects in xenograft-bearing nude mice (body weight, blood count, biochemical tests); format: in vivo; conditions: for WBC count and liver function: doses equimolar to that of DAC
Protocol: as §2

[8] = target: T1, human recombinant cytidine deaminase (Homo sapiens, UniProt P32320); experiment: Stability in the presence of cytidine deaminase; format: in vitro ADME
T1 construct: His; purchased AT Gen Co. Ltd; Seoul, Korea
Excerpt: The remaining of the starting derivatives were continuously assayed using HPLC analytical conditions as described above.

DNMT1 = DNMT1 western blot; format: cell-based, Human; conditions: HML58-3 cells
Protocol: Cells were seeded at a density of 3 × 10^5 cells/10-cm dish and treated with appropriate drug(s) 24 h after the initial seeding. On day 5, the cells were lysed in RIPA buffer (20 mM Tris-HCl, pH 7.6; 150 mM NaCl; 1 mM EDTA; 0.1% SDS; and 1% NP-40) containing 3 mM dithiothreitol, proteinase inhibitor cocktail (Nacalai Tesque; Kyoto, Japan). Proteins were resolved by SDS-PAGE and transferred to an Immobilon-P […] membrane (Merck Millipore; Billerica, MA). After blocking, each membrane was incubated with rabbit anti-DNMT1 antibody (Abcam, 1:1000) or mouse anti-PARP antibody (BD, 1:1000). Following three cycles of 10-min washes with PBS supplemented with 0.5% Tween 20 (PBS-T), blots were incubated with secondary antibodies (rabbit IgG, 1:1000; mouse IgG, 1:10000) and rewashed. Chemiluminescence was detected using an ECL kit (Biological Industries).

[9] = design: method as in Yoo C.B. et al. Cancer Research 2007; 67:6400–6408; conditions: ref Yoo C.B. et al. Cancer Research 2007, 67:6400–6408; cited from earlier work
SFRP1 and UCHL1 = experiment: RT-qPCR of tumor-suppressor genes after pulse exposure; format: cell-based, Human; conditions: HML58-3 cells, 1.0 μM for 1 h
Protocol: Complementary DNA (cDNA) was synthesized from DNase-treated total RNA (1 μg) using oligo-(dT) 20 (Thermo Fisher Scientific; Waltham, MA) and SuperScript IV Reverse Transcriptase (Thermo Fisher Scientific). The number of cDNA molecules was quantified using qRT-PCR. The primer sequences and PCR conditions are shown in Additional file 1: Table S1. The copy number of each sample was calculated by comparing the amplification curve with those of standard DNA samples with known copy number. The number of target cDNA molecules was normalized to that of GAPDH cDNA molecules.

[10] = plasma, DAC (metabolite for OR compounds), equimolar dose

T1 sequence (P32320 whole entry): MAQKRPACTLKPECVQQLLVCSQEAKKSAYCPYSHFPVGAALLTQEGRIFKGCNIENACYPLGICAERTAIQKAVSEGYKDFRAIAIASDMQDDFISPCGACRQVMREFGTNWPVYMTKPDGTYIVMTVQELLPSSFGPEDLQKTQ

Structure (SMILES)	Log PO/PBS [1]	half-life (time to release DAC) [2]	Stability t1/2 in PBS [2]	t1/2 in PBS [2]	total AUC of OR compound and metabolite DAC compared with DAC [3]	AUC 0 → lim, DAC [3, 10]	AUC 0 → lim, Total ([3]; plasma)	AUC 0 → lim, OR compound ([3]; plasma)	DNA demethylation after pulse exposure [5]	DNA demethylation of exogenous UCHL1 promoter and OSR2 promoter CpG island [5]	genome-wide DNA demethylation (HML58-3 cells [6])	pIC50 (RKO cells)	pIC50 (TMK1 cells)	pIC50 (HCT116 cells)	number of genes upregulated more than twofold and to − 1.0 log2 value (HML58-3)	DNA demethylation of two promoters in xenograft tumors (HCT116 xenografts)	tumor growth (tumor volume) (HCT116 xenografts)	WBC count and liver function [7]	other results
CC[Si](CC)(CC)OC[C@H]1O[C@@H](n2cnc(N)nc2=O)C[C@@H]1O [OR-2100]	2.14	≥ 14 h	20** + 16 h	16 h	larger AUCs than that of DAC	0.266 µM·h	0.434 µM·h	0.168 µM·h	stronger demethylation	slightly lower demethylation	as strong DNA demethylation as DAC	7.22	5.85	5.95	2041	significant demethylation	significant and dose-dependent inhibition of tumor growth	no influence	luciferase activity after pulse exposure (HML58-3 cells [4]): weaker than that of DAC; adverse effects ([7]; high dose): no adverse effects
Nc1ncn([C@H]2C[C@H](O)[C@@H](CO)O2)c(=O)n1 [DAC, 2′-deoxy-5-azacytidine, reference compound]															2011		suppressed the xenograft growth		Enzymatic stability ([8]; cytidine deaminase, after 0.5 h): completely degraded; also recorded: Complete degradation after 0.5 h; AUC ([3]; female, ICR, mouse, ip, 0.2 mg/kg, plasma, DAC (metabolite for OR compounds), equimolar dose, read-out: AUC 0 → lim, DAC): 0.378 µM·h; DNMT1 protein level (DNMT1): depleted at 3 and 10 μM; dose with strongest effect of DNA demethylation [5]: 1.0 µM; pIC50 (RKO cells; Homo sapiens): 9.70; pIC50 (TMK1 cells; Homo sapiens, TMK-1): 5.23; pIC50 (HCT116 cells; Homo sapiens, HCT-116): 6.07; body weight ([7]; 7.50 and 3.75 mg/kg, initial experiment): severe body weight loss; WBC count and liver function (AST, ALT) ([7]; even at a lower dose (0.625 and 1.250 mg/kg)): affected; Stability t1/2 in PBS [9]: 20 h
CCC[Si](C)(C)OC[C@H]1O[C@@H](n2cnc(N)nc2=O)C[C@@H]1O [OR-2003]	1.64	1 h	20** + 1 h	1.0 h	larger AUCs than that of DAC	0.338 µM·h	0.643 µM·h	0.305 µM·h	stronger demethylation	as strongly as DAC	as strong DNA demethylation as DAC	7.40	5.55	6.04	2060	significant demethylation	significant and dose-dependent inhibition of tumor growth	no influence	enzymatic stability in the presence of CDA [8]: stable in the presence of CDA; Cmax ([3]; comparison among four OR compounds): highest Cmax; expression level of SFRP1 and UCHL1 after pulse exposure (SFRP1 and UCHL1): twice as high as that induced by DAC; tumor growth inhibition (HCT116 xenografts; highest dose 3.600 mg/kg): strongest effect; WBC count ([7]; highest dose 3.600 mg/kg): affected the WBC count
